The values that follow come from patent publication EP0429987B1, “5,11-Dihydro-6H-dipyrido[3,2-b:2',3'-e] [1,4]diazepines and their use in the prevention or treatment of HIV infection” (priority 1989, dated 1991).

For series [1], the target named is T1, HIV-1 RT (Human immunodeficiency virus type 1 group M subtype B, UniProt P03367).
T1 construct: Reverse transcriptase enzyme from the LAV strain of Human Immunodeficiency Virus (HIV-1) (1) was isolated; made in house; host or cells: E. coli JM109, clone pBRTprtl+ in vector pIBI21 (lac promoter, IPTG induction)
The experiment in a line: Reverse Transcriptase (RT) Assay: inhibition of RNA-dependent DNA polymerase activity. It is filed as biochemical. The conditions noted are these: for inhibition at 10 µg/mL: read-out: RT Assay % inhibition @ 10 µg/ml; for inhibition at 1.25 µM: @ 1.25µM (footnote +); for inhibition at 1 µM: @ 1µM (footnote *), read-out: RT Assay % inhibition. The text has this: Utilizing the Reverse Transcriptase (RT) Assay described below, compounds can be tested for their ability to inhibit the RNA-dependent DNA polymerase activity of HIV-1 RT.
Among the enzymes for which Human Immunodeficiency Virus (HIV-1) encodes is a reverse transcriptase (1), so-named because it transcribes a DNA copy from an RNA template. This activity can be quantitatively measured in a cell-free enzyme assay, which has been previously described (2), and is based upon the observation that reverse transcriptase is able to use a synthetic template [poly r(C) primed with oligo d(G)] to transcribe a radio-labelled, acid-precipitable DNA strand utilizing ^3H-dGTP as a substrate.
Reverse transcriptase enzyme from the LAV strain of Human Immunodeficiency Virus (HIV-1) (1) was isolated from the bacterial strain JM109 (3) expressing the DNA clone pBRTprtl+ (2) which is under the control of the lac promotor in the expression vector pIBI21 (4). An overnight culture grown in 2XYT medium (37°C, 225 rpm) (5) supplemented with 100 µg/ml ampicillin for positive selection is inoculated at a 1:40 dilution into M9 medium supplemented with 10µg/ml thiamine, 0.5% casamino acids, and 50 µg/ml ampicillin (5). The culture is incubated (37°C, 225 rpm) until it reaches an OD540 of 0.3-0.4. At that time the repressor inhibitor IPTG (isopropyl β-D-thiogalactopyranoside) is added to 0.5mM, and the mixture is incubated for 2 additional hours. Bacteria are pelleted, resuspended in a 50mM Tris, 0.6mM EDTA, 0.375M NaCl buffer and digested by the addition of lysozyme (1mg/ml) for 30 minutes on ice. The cells are lysed by the addition of 0.2% NP-40 and brought to 1M NaCl.
After removal of the insoluble debris by centrifugation, the protein is precipitated by the addition of 3 volumes of saturated aqueous ammonium sulfate. The enzyme is pelleted, resuspended in RT buffer (50mM Tris pH 7.5, 1mM EDTA, 5mM DTT, 0.1% NP-40, 0.1M NaCl, and 50% glycerol), and stored at -70°C for further use.
The 2X concentrated stock reaction mixture is aliquoted and stored at -20°C. […] This enzyme assay has been adapted to a 96 well microtiter plate system, and has been previously described (6). Tris buffer (50 mM, pH 7.4), vehicle (solvent diluted to match the compound dilution), or compounds in vehicle are dispensed into 96-well microtiter plates (10µl/well; 3 wells/ compound). The HIV-1 RT enzyme is thawed, diluted in 50mM Tris pH 7.4 so that fifteen µl of diluted enzyme contain 0.001 Unit (one unit is that amount of enzyme to transform 1 micromole of substrate per minute at 25°C), and fifteen µl are dispensed per well. Twenty µl of 0.12-0.5M EDTA are added to the first three wells of the microtiter plate. EDTA chelates the Mg^++ present and prevents reverse transcription. This group serves as background polymerization which is subtracted from all other groups. Twenty-five µl of the 2X reaction mixture are added to all wells and the assay is allowed to incubate at room temperature for 60 minutes. The assay is terminated by precipitating the DNA in each well with 50µl of 10% trichloracetic acid (TCA) (10% w/v) in sodium pyrophosphate (1% w/v). The microtiter plate is incubated for 15 minutes at 4°C and the precipitate is fixed onto #30 glass fiber paper (Schleicher & Schuell) using a Skatron semi-automatic harvester. The filters are then washed with additional TCA (5%) containing sodium pyrophosphate (1%), rinsed with aqueous ethanol (70%), dried, and transferred to scintillation vials (6). Each vial receives 2 mls of scintillation cocktail and is counted in a Beckman beta counter.
The calculation for percent inhibition is as follows: %inhibition =(CPM Mean Test Value - CPM Mean Control Value X100)/(CPM Mean Control Value) [formula]

In series [2] the test system is HTLV-IIIB strain of HIV-1. Kind of series: Human T-Cell Culture Assay: inhibition of syncytia formation in c8166 cells. The conditions noted are these: Human immunodeficiency virus 1, IIIB, 96 h, four days after virus challenge. It is filed as cell-based. The procedure: In order to confirm that compounds which are active in the RT Assay also have the ability to inhibit HIV replication in a living system, compounds according to the invention were also tested in the human T-Cell Culture Assay described below.
Assay Theory: Formation of syncytia is a feature of in vitro cultures of CD4+ T-cells infected with HIV-1. In this assay, T-cells are treated with a putative replication inhibiting compound and then infected with HIV-1. After incubation, the culture is checked for the formation of syncytia. The absence or reduction in the number of syncytia is used as a measure of the test compound's ability to inhibit HIV replication.
Assay Method: The target cells, designated c8166, are a sub-clone of human lymphoma cells of T-cell origin and are established at an initial density of 5x10^4 per 100 ul in RPMI 1640 (+ 10% fetal bovine serum) culture medium in 96 well flat bottom plates. A selected amount of test compound, dissolved in DMSO, is included. After 24 hours, 50-100 TCID50's (the dose that results in induced effect in 50% of test cultures) of the HTLV-IIIB strain of HIV-1 (2) are inoculated into each culture. Control cultures receive compound or virus only. Four days after virus challenge, cultures are visually examined for the frequency and distribution of virus-induced giant cell syncytia. The percent inhibition by the test compound is determined by comparison with control values. Confirmation of the presence or absence of virus replication is accomplished by harvesting the cell free culture fluids from all experimental groups to determine the presence or absence of infectious progeny through the induction of syncytia formation in secondary human T-cell cultures after 3 days.

Series [3] is described as follows: in vitro. The note with it: human, h9 cells. The procedure:
In order to roughly assess the cytotoxicity of the compounds provided by the invention, several such compounds were tested in the MTT Cellular Cytotoxicity Assay described below.
The MTT [3-(4,5-dimethylthiazol-2-yl)-2,5 diphenyl tetrazolium bromide) assay is based on cleavage of tetrazolium bromide by metabolically active cells, resulting in a highly quantitative blue color. This assay has been previously described (1) but has been optimized for the purposes of the testing reported herein.
The H9 cell line (2), an established human lymphoma suspension cell line grown in RPMI 1640 supplemented with 10% fetal bovine serum, is used as the target cell line in the assay. Cells (100 µl) are plated in microtest plate wells at a concentration of 10^5 cells per ml in the presence of varying concentrations of inhibitor. The cells are incubated at 37°C in a humidified CO2 incubator. Five days later, 20µl of MTT (5mg/ml in RPMI 1640, sonicated, 0.2 micron filtered, and stored at 4°C) is added to each well. After 4 hours additional incubation at 37°C, 60µl of Triton-X is added to each well and thoroughly mixed to aid the solubilization of the crystals. Absolute ethanol (5µl) is added to each well and the resulting mixture is incubated for 30 minutes at 60°C and immediately read on a plate reader (Dynatech) at a wavelength of 570nm.
Data from this assay are used to generate a nonlinear regression analysis which yields an EC50.

Molecules are shown by their SMILES.

`Cc1ccnc2c1NC(=O)c1cccnc1N2C1CC1` [Example 3, 11-Cyclopropyl-5,11-dihydro-4-methyl-6H-dipyrido[3,2-b:2',3'-e][1,4]diazepin-6-one]: the “RT Assay % inhibition @ 10 µg/ml” value in series [1] (@ 10 µg/ml) worked out at 100%. This compound registered an inhibition at 3 µg/mL in series [2] of 100%. Moreover, half-maximal cytotoxicity in series [3] (CC50 at 120 h) was put at 250 µM.

For `CN1C(=O)c2cccnc2N(C2CC2)c2ncccc21` [Example 47], the inhibition at 10 µg/mL in series [1] was 100%. Besides, in series [2], the inhibition at 3 µg/mL turned out to be 100%.

On to `CCN1c2ncccc2C(=O)Nc2c(C)ccnc21` [Example 2, 5,11-Dihydro-11-ethyl-4-methyl-6H-dipyrido-[3,2-b:2',3'-e][1,4]diazepin-6-one], for which the inhibition at 10 µg/mL in series [1] was 100%. Also, in series [2], the inhibition at 3 µg/mL came out at 100%. Half-maximal cytotoxicity in series [3] (CC50 at 120 h) was put at 200 µM.

Turning to `CCN1c2ncccc2C(=O)Nc2c(C)cc(OC)nc21` [Example 7, 5,11-Dihydro-11-ethyl-2-methoxy-4-methyl-6H-dipyrido[3,2-b:2',3'-e][1,4]diazepin-6-one], in series [1], the inhibition at 1.25 µM turned out to be 96%. The compound further returned an inhibition at 3 µg/mL in series [2] of 100%. Further, it took 350 µM to reach half-maximal cytotoxicity in series [3] (CC50 at 120 h).

Consider `CCN1c2ncccc2NC(=O)c2cccnc21` [Example 14], for which the inhibition at 10 µg/mL in series [1] came to 99%. In series [2], this compound came in with an inhibition at 3 µg/mL of 100%.

In series [1], `CCN1c2ncccc2C(=O)N(C)c2ccc(N3CCCC3)nc21` [Example 6, 5,11-Dihydro-11-ethyl-5-methyl-2-(N-pyrrolidino)-6H-dipyrido[3,2-b:2',3'-e][1,4]diazepin-6-one] came in with an inhibition at 1.25 µM of 91%. The inhibition at 3 µg/mL in series [2] amounted to 100%. It took 45 µM to reach half-maximal cytotoxicity in series [3] (CC50 at 120 h).

In series [1], `N#Cc1ccnc2c1NC(=O)c1cccnc1N2C1CC1` [Example 58] showed an inhibition at 1.25 µM of 37%.

As to `CCN1c2ncc(N)cc2C(=O)N(C)c2cccnc21` [Example 65, 8-Amino-5,11-dihydro-11-ethyl-5-methyl-6H-dipyrido[3,2-b:2',3'-e] [1,4]diazepin-6-one hemihydrate], the inhibition at 1 µM in series [1] amounted to 82%.

As for `CCN1c2ncccc2C(=O)Nc2c(C)cc(Cl)nc21` [Example 12], the inhibition at 1 µM in series [1] was 91%.
